Measured values published in patent US20150273070A1, “MODIFIED RELEASE OF 4-METHYL-3-[[4-(3-PYRIDINYL)-2-PYRIMIDINYL]AMINO]-N-[5-(4-METHYL-1H-IMIDAZOL-1-YL)-3-(TRIFLOUOROMETHYL)PHENYL] BENZAMIDE SOLUBILIZED USING ORGANIC ACIDS” (Novartis AG, priority 2011, published 2015).

Experiments:
[1] = Solubility of nilotinib in lactic acid; format: physicochemical
From the text: Nilotinib solubilized modified release solid dosage forms containing lactic acid were developed. […] Surfactants and/or polymers were used to prevent the precipitation after solubilized nilotinib is released from the formulation matrix. Due to the liquid nature of lactic acid this formulation matrix is in the liquid form. However, by incorporation of additional suitable excipients, the formulation could be solidified at room temperature. This improved the physical and chemical stability of nilotinib in the formulation. In addition, the solid state also provided the opportunity to modulate the drug release rate.

[2] = Solubility of nilotinib in ethanol with citric acid; format: physicochemical

SMILES: Cc1cn(-c2cc(NC(=O)c3ccc(C)c(Nc4nccc(-c5cccnc5)n4)c3)cc(C(F)(F)F)c2)cn1 [nilotinib, 4-Methyl-3-[[4-(3-pyrldinyl)-2-pyrimidinyl]amino]-N-[5-(4-methyl-1H-imidazol-1-yl)-3-(trifluoromethyl)phenyl] benzamide]
- solubility at intestinal pH ([1]; in presence of surfactants and/or polymers): could maintain its solubility at intestinal pH
- solubility ([1]; lactic acid, organic solvent or mixture, at 65° C.): > 600 mg/mL
- solubility of the drug in ethanol [2]: remarkably high solubility
